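Step 1: Grow cells in 96-well plates. Step 2: Expose to compound for 48 hours at 5 concentrations. Step 3: Interpolate endpoints linearly; if unreached, use highest concentration. The concentration for 50% growth inhibition is given as GI50.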 Activity calls are given as the source filed them. No stated cut-off is given here; in the data, active = GI50 up to about 1.1 µM and inactive = higher.
Tests used:
Experiment in all cases: inhibition of tumour cell growth, NCI panel, 48 h
[1] = system: MOLT-4
[2] = system: MCF7
[3] = system: Malme-3M
[4] = system: CCRF-CEM
[5] = system: SF-539
[6] = system: SW-620
[7] = system: RPMI-8226
[8] = system: MDA-MB-231
[9] = system: ACHN
[10] = system: U-251
[11] = system: MDA-N
[12] = system: SK-MEL-28
[13] = system: TK-10
[14] = system: SF-295
[15] = system: M14
[16] = system: T47D
[17] = system: A549
[18] = system: NCI/ADR-RES
[19] = system: HCT-15
[20] = system: RXF 393

Structure (SMILES)	GI50 [1]	GI50 [2]	GI50 [3]	GI50 [4]	GI50 [5]	GI50 [6]	GI50 [7]	GI50 [8]	GI50 [9]	GI50 [10]	GI50 [11]	GI50 [12]	GI50 [13]	GI50 [14]	GI50 [15]	GI50 [16]	GI50 [17]	GI50 [18]	GI50 [19]	GI50 [20]
Cn1c(N)cc(=O)nc1N	> 100 µM (inactive)	> 100 µM (inactive)	> 100 µM (inactive)	> 100 µM (inactive)	> 100 µM (inactive)	> 100 µM (inactive)	> 100 µM (inactive)	> 100 µM (inactive)	> 100 µM (inactive)	> 100 µM (inactive)	> 100 µM (inactive)	> 100 µM (inactive)	> 100 µM (inactive)	> 100 µM (inactive)	> 100 µM (inactive)	> 100 µM (inactive)	> 100 µM (inactive)	> 100 µM (inactive)	> 100 µM	–
O=C(/C(=C(/Br)I)c1ccccc1)c1ccccc1	15.2 µM (inactive)	30.9 µM (inactive)	14.5 µM (inactive)	5.56 µM (inactive)	17.2 µM (inactive)	–	7.1 µM (inactive)	25.5 µM (inactive)	29.4 µM (inactive)	25.8 µM (inactive)	28.5 µM (inactive)	–	27.2 µM (inactive)	27.2 µM (inactive)	16.3 µM (inactive)	22.6 µM (inactive)	26.9 µM (inactive)	16.8 µM (inactive)	25.1 µM	16.8 µM (inactive)
COc1cc(O)c2c(=O)c(O)c(-c3ccc(O)c(O)c3)oc2c1 [RHAMNETIN]	6.95 µM (inactive)	17.8 µM (inactive)	17.7 µM (inactive)	3.61 µM (inactive)	–	10.8 µM (inactive)	6.73 µM (inactive)	10.7 µM (inactive)	5.47 µM (inactive)	4.86 µM (inactive)	19.8 µM (inactive)	6.76 µM (inactive)	21.4 µM (inactive)	21.2 µM (inactive)	5.15 µM (inactive)	19.6 µM (inactive)	15 µM (inactive)	8.55 µM (inactive)	8.04 µM	–
C[N+]1(C)CCc2cc(O)c(O)cc2C1Cc1ccc(O)c(O)c1 (configuration not stated)	23 µM (inactive)	19.8 µM (inactive)	32.1 µM (inactive)	–	50.4 µM (inactive)	28.4 µM (inactive)	22.2 µM (inactive)	31.1 µM (inactive)	35.3 µM (inactive)	> 100 µM (inactive)	32.2 µM (inactive)	99.8 µM (inactive)	94.8 µM (inactive)	> 100 µM (inactive)	92.7 µM (inactive)	23 µM (inactive)	> 100 µM (inactive)	79.4 µM (inactive)	36 µM	39.9 µM (inactive)
Cc1ccc(C(=O)c2[nH]c(NCc3ccccc3)c(C(=S)Nc3ccccc3)c2N)cc1	2.83 µM (inactive)	2.88 µM (inactive)	–	5.16 µM (inactive)	2.86 µM (inactive)	2.38 µM (inactive)	2.15 µM (inactive)	6.55 µM (inactive)	11.4 µM (inactive)	4.04 µM (inactive)	3.51 µM (inactive)	3.64 µM (inactive)	11.2 µM (inactive)	5.06 µM (inactive)	1.95 µM (inactive)	10.3 µM (inactive)	9.2 µM (inactive)	2.58 µM (inactive)	2.14 µM	5.78 µM (inactive)
Cc1ccc(S(=O)(=O)NCCCSCCO)cc1	56.5 µM (inactive)	32.8 µM (inactive)	–	33.3 µM (inactive)	–	89.7 µM (inactive)	–	27.7 µM (inactive)	> 100 µM (inactive)	8.26 µM (inactive)	55 µM (inactive)	> 100 µM (inactive)	90.8 µM (inactive)	> 100 µM (inactive)	28.6 µM (inactive)	21.7 µM (inactive)	10.5 µM (inactive)	> 100 µM (inactive)	> 100 µM	> 100 µM (inactive)
Oc1ccc(-c2nc(-c3cccnc3)c(-c3ccc(Cl)cc3)[nH]2)cc1	2.52 µM (inactive)	11.3 µM (inactive)	13.5 µM (inactive)	1.79 µM (inactive)	–	14.6 µM (inactive)	3.47 µM (inactive)	16.2 µM (inactive)	14.5 µM (inactive)	14.3 µM (inactive)	12.6 µM (inactive)	16 µM (inactive)	13.3 µM (inactive)	14 µM (inactive)	13.1 µM (inactive)	11.7 µM (inactive)	15.3 µM (inactive)	14.5 µM (inactive)	12.1 µM	13.3 µM (inactive)
N=C(N)c1ccc(C(NC(=O)CNS(=O)(=O)c2ccc3ccccc3c2)P(=O)(Oc2ccccc2)Oc2ccccc2)cc1 (configuration not stated)	21 µM (inactive)	54 µM (inactive)	68.1 µM (inactive)	29.8 µM (inactive)	14.1 µM (inactive)	53.2 µM (inactive)	46.3 µM (inactive)	41.2 µM (inactive)	> 100 µM (inactive)	39.4 µM (inactive)	47.6 µM (inactive)	> 100 µM (inactive)	–	–	45.2 µM (inactive)	65.3 µM (inactive)	54.1 µM (inactive)	69.5 µM (inactive)	48.5 µM	> 100 µM (inactive)

From ChEMBL document CHEMBL1201862, “PubChem BioAssay data set” (2004)
